Results on twelve compounds are retold here after publication PMC9743092, “Membrane-Active Cyclic Amphiphilic Peptides: Broad-Spectrum Antibacterial Activity Alone and in Combination with Antibiotics” (Journal of Medicinal Chemistry, 2022).

In brackets after ≈: the same amount, converted by molar mass. Read-outs that look alike come from different tables or passages of the source. Peptide text beside a SMILES is read from it.

Data set [1] concerns K. pneumoniae (ATCC BAA-1705). Conditions: for MIC K. pneumoniae: supplementary csv, unit not given; for MIC K. pneumoniae (ATCC BAA-1705): antibiotic alone or physical mixture with peptide (1:1 w/w).
The test system of data set [2] is P. aeruginosa (ATCC 27883). More on the design: MIC P. aeruginosa: unit not given beside the values. Conditions: for MIC P. aeruginosa: supplementary csv, unit not given.
Data set [3] deals with E. coli (ATCC 25922). Set-up: MIC E. coli: unit not given beside the values. Particulars: supplementary csv, unit not given.
In data set [4] the test system is MRSA (ATCC BAA-1556). More on the design: MIC MRSA: unit not given beside the values. Particulars: supplementary csv, unit not given.
In data set [5] the test system is human red blood cells (hRBCs). Particulars: red cells of human, 2 h.
Data set [6] concerns K. pneumoniae (ATCC BAA-1705). As to the kind of experiment: Synergistic checkerboard assay. Particulars: for MIC: Klebsiella pneumoniae, ATCCBAA1705, read-out: MIC antibiotic alone.
The test system of data set [7] is P. aeruginosa (ATCC 27883). The data set is described as follows: Synergistic checkerboard assay. It is filed as cell-based. Particulars: Pseudomonas aeruginosa.
In data set [8] the test system is E. coli (ATCC 25922). Particulars: 24 h, ≥99.9% kill.
The test system of data set [9] is K. pneumoniae (ATCC BAA-1705). Particulars: 24 h, ≥99.9% kill.
Data set [10] relates to P. aeruginosa (ATCC 27883). Particulars: 24 h, ≥99.9% kill.
Data set [11] concerns E. coli (ATCC 25922). The data set is described as follows: Synergistic checkerboard assay. Particulars: Escherichia coli. It is filed as cell-based.
The subject of data set [12] is MRSA (ATCC BAA-1556). As to the kind of experiment: microbe, parasite or virus in culture. Particulars: Staphylococcus aureus.
The subject of data set [13] is S. aureus (ATCC BAA-1556). The data set is described as follows: Synergistic checkerboard assay. Particulars: Staphylococcus aureus. It is filed as cell-based.
The subject of data set [14] is P. aeruginosa (ATCC 27883). The data set is described as follows: microbe, parasite or virus in culture. Conditions: Pseudomonas aeruginosa, ATCC27883, read-out: MIC P. aeruginosa (ATCC 27883).
The test system of data set [15] is K. pneumoniae (ATCC BAA-1705). As to the kind of experiment: microbe, parasite or virus in culture. Particulars: Klebsiella pneumoniae.
Data set [16] has as its system E. coli (ATCC 25922). As to the kind of experiment: microbe, parasite or virus in culture. Conditions: Escherichia coli.
Setting [17] is: ATCC27883, checkerboard, read-out: MIC antibiotic alone.
[18] abbreviates: ATCC25922, read-out: MIC antibiotic alone.
The mark [19] stands for this setting: ATCC27883, read-out: MIC antibiotic alone.
Where [20] appears, read: read-out: MIC S. aureus (ATCC BAA-1556).
Where [21] appears, read: ATCCBAA1556, checkerboard, read-out: MIC antibiotic alone.
Where [22] appears, read: ATCCBAA1705, read-out: MIC K. pneumoniae (ATCC BAA-1705).
[23] abbreviates: ATCC25922, checkerboard, read-out: MIC antibiotic alone.
[24] abbreviates: ATCC25922, read-out: MIC E. coli (ATCC 25922).

For the compound `N=C(N)NCCC[C@@H]1NC(=O)[C@H](CCCNC(=N)N)NC(=O)[C@H](CCCNC(=N)N)NC(=O)[C@H](Cc2c[nH]c3ccccc23)NC(=O)[C@H](Cc2c[nH]c3ccccc23)NC(=O)[C@H](Cc2c[nH]c3ccccc23)NC(=O)[C@H](Cc2c[nH]c3ccccc23)NC(=O)[C@H](Cc2c[nH]c3ccccc23)NC(=O)[C@H](Cc2c[nH]c3ccccc23)NC(=O)[C@H](CCCNC(=N)N)NC(=O)[C@H](CCCNC(=N)N)NC1=O` [5c, [R5W6]] (cyclo(RRRRRWWWWWW)), in [1], the “MIC K. pneumoniae” value is greater than 256. Further, the “MIC P. aeruginosa” value in data set [2] is recorded as greater than 256. The “MIC E. coli” value in data set [3] is on record as greater than 256. Moreover, in data set [4], the “MIC MRSA” value is on record as greater than 256. In [5], this compound displayed an HC50 of 140 µg/mL.

`N=C(N)NCCC[C@@H]1NC(=O)[C@H](CCCNC(=N)N)NC(=O)[C@H](CCCNC(=N)N)NC(=O)[C@H](Cc2c[nH]c3ccccc23)NC(=O)[C@H](Cc2c[nH]c3ccccc23)NC(=O)[C@H](Cc2c[nH]c3ccccc23)NC(=O)[C@H](Cc2c[nH]c3ccccc23)NC(=O)[C@H](Cc2c[nH]c3ccccc23)NC(=O)[C@H](Cc2c[nH]c3ccccc23)NC(=O)[C@H](Cc2c[nH]c3ccccc23)NC(=O)[C@H](CCCNC(=N)N)NC(=O)[C@H](CCCNC(=N)N)NC1=O` [5d, [R5W7]] (cyclo(RRRRRWWWWWWW)): in [1], the “MIC K. pneumoniae” value is greater than 256. The “MIC P. aeruginosa” value in data set [2] was greater than 256. Besides, the “MIC E. coli” value in data set [3] was greater than 256. Moreover, in data set [4], the “MIC MRSA” value was greater than 256. For the same compound, in [5], the HC50 worked out at 115 µg/mL.

As for `N=C(N)NCCC[C@@H]1NC(=O)[C@H](CCCNC(=N)N)NC(=O)[C@H](CCCNC(=N)N)NC(=O)[C@H](CCCNC(=N)N)NC(=O)[C@H](Cc2c[nH]c3ccccc23)NC(=O)[C@H](Cc2c[nH]c3ccccc23)NC(=O)[C@H](Cc2c[nH]c3ccccc23)NC(=O)[C@H](Cc2c[nH]c3ccccc23)NC(=O)[C@H](Cc2c[nH]c3ccccc23)NC(=O)[C@H](Cc2c[nH]c3ccccc23)NC(=O)[C@H](CCCNC(=N)N)NC(=O)[C@H](CCCNC(=N)N)NC1=O` [6c, [R6W6]] (cyclo(RRRRRRWWWWWW)), in data set [1], the “MIC K. pneumoniae” value is listed as 64. Further, the “MIC P. aeruginosa” value in [2] was determined as 128. In addition, the “MIC E. coli” value in data set [3] is listed as 64. Further, in [4], the “MIC MRSA” value came out at 16. The same compound registered an HC50 in [5] of 170 µg/mL.

For `N=C(N)NCCC[C@@H]1NC(=O)[C@H](CCCNC(=N)N)NC(=O)[C@H](CCCNC(=N)N)NC(=O)[C@H](CCCNC(=N)N)NC(=O)[C@H](Cc2c[nH]c3ccccc23)NC(=O)[C@H](Cc2c[nH]c3ccccc23)NC(=O)[C@H](Cc2c[nH]c3ccccc23)NC(=O)[C@H](Cc2c[nH]c3ccccc23)NC(=O)[C@H](Cc2c[nH]c3ccccc23)NC(=O)[C@H](Cc2c[nH]c3ccccc23)NC(=O)[C@H](Cc2c[nH]c3ccccc23)NC(=O)[C@H](CCCNC(=N)N)NC(=O)[C@H](CCCNC(=N)N)NC1=O` [6d, [R6W7]] (cyclo(RRRRRRWWWWWWW)), the “MIC K. pneumoniae” value in data set [1] is on record as 256. Also, in [2], the “MIC P. aeruginosa” value is reported as greater than 256. Also, the “MIC E. coli” value in [3] is recorded as 128. Moreover, the “MIC MRSA” value in data set [4] amounted to 64. Moreover, the HC50 in data set [5] is 85 µg/mL.

Consider `N=C(N)NCCC[C@@H]1NC(=O)[C@H](CCCNC(=N)N)NC(=O)[C@H](CCCNC(=N)N)NC(=O)[C@H](CCCNC(=N)N)NC(=O)[C@H](Cc2c[nH]c3ccccc23)NC(=O)[C@H](Cc2c[nH]c3ccccc23)NC(=O)[C@H](Cc2c[nH]c3ccccc23)NC(=O)[C@H](Cc2c[nH]c3ccccc23)NC(=O)[C@H](CCCNC(=N)N)NC(=O)[C@H](CCCNC(=N)N)NC(=O)[C@H](CCCNC(=N)N)NC1=O` [7a, [R7W4]] (cyclo(RRRRRRRWWWW)), for which the “MIC K. pneumoniae” value in data set [1] was determined as 64. The “MIC P. aeruginosa” value in [2] is 32. In addition, the “MIC E. coli” value in data set [3] stood at 32. Moreover, the “MIC MRSA” value in [4] stood at 16. The HC50 in data set [5] worked out at 190 µg/mL.

On to `CCC[C@@H]1C[C@@H](C(=O)N[C@@H]([C@H]2O[C@H](SC)[C@H](O)[C@@H](O)[C@H]2O)[C@H](C)Cl)N(C)C1` [clindamycin], for which the MIC in data set [6] and in data set [7] (setting [17]) was 512 µg/mL in each case. Moreover, the MIC antibiotic alone in [6] (checkerboard) was 512 µg/mL. Besides, in [1], the “MIC K. pneumoniae (ATCC BAA-1705)” value is 512 µg/mL (≈ 1200 µM). Moreover, the “MIC P. aeruginosa (ATCC 27883)” value in data set [2] (antibiotic alone or physical mixture with peptide (1:1 w/w)) is recorded as 512 µg/mL (≈ 1200 µM).

Regarding `N=C(N)NCCC[C@@H]1NC(=O)[C@H](CCCNC(=N)N)NC(=O)[C@H](CCCNC(=N)N)NC(=O)[C@H](Cc2c[nH]c3ccccc23)NC(=O)[C@H](Cc2c[nH]c3ccccc23)NC(=O)[C@H](Cc2c[nH]c3ccccc23)NC(=O)[C@H](Cc2c[nH]c3ccccc23)NC(=O)[C@H](CCCNC(=N)N)NC1=O` [compound 1, [R4W4]] (cyclo(RRRRWWWW)), the “MBC E. coli (ATCC 25922)” value in data set [8] came to 32 µg/mL (≈ 23.4 µM). Moreover, in [9], the “MBC K. pneumoniae (ATCC BAA-1705)” value was 64 µg/mL (≈ 46.7 µM). The “MBC P. aeruginosa (ATCC 27883)” value in data set [10] stood at 128 µg/mL (≈ 93.5 µM). In data set [5], the concentration for 50% haemolysis (HC50) turned out to be 175 µg/mL.

Turning to `C[C@H]1COc2c(N3CCN(C)CC3)c(F)cc3c(=O)c(C(=O)O)cn1c23.C[C@H]1COc2c(N3CCN(C)CC3)c(F)cc3c(=O)c(C(=O)O)cn1c23.O` [levofloxacin], the MIC in [6] was 64 µg/mL; in data set [11] (setting [18]), 64 µg/mL; in data set [7] (setting [19]), 1 µg/mL.

As for `Cc1ncc([N+](=O)[O-])n1CCO` [metronidazole], the MIC in data set [6] was 256 µg/mL; in data set [12] (setting [20]), 32 µg/mL (≈ 187 µM); in data set [13] (setting [21]) it was 32 µg/mL; in [7] (setting [17]), 32 µg/mL; in data set [14] it was 32 µg/mL (≈ 187 µM). Also, in [1], the “MIC K. pneumoniae (ATCC BAA-1705)” value is recorded as 256 µg/mL (≈ 1500 µM).

As to `CN(C)[C@@H]1C(O)=C(C(N)=O)C(=O)[C@@]2(O)C(O)=C3C(=O)c4c(O)cccc4[C@@](C)(O)[C@H]3C[C@@H]12` [tetracycline], the MIC was found to be […] in [6]; […] in data set [15] (setting [22]); 0.25 µg/mL (≈ 0.563 µM) in [12] (setting [20]); 0.25 µg/mL in data set [13] (setting [21]); 8 µg/mL in [11] (setting [23]); 32 µg/mL in data set [7] (setting [17]). Further, the MIC in data set [14] stood at 32 µg/mL (≈ 72 µM); in data set [16] (setting [24]), 8 µg/mL (≈ 18 µM).

With `NC[C@H]1O[C@H](O[C@H]2[C@H](O)[C@@H](O[C@H]3O[C@H](CO)[C@@H](O)[C@H](N)[C@H]3O)[C@H](N)C[C@@H]2N)[C@H](N)C[C@@H]1O` [tobramycin], the MIC in data set [6] was 16 µg/mL; in data set [15] (setting [22]), 16 µg/mL (≈ 34.2 µM); in data set [12] (setting [20]), 0.5 µg/mL (≈ 1.07 µM); in [13] (setting [21]) it was 0.5 µg/mL; in data set [11] (setting [23]), 8 µg/mL; in [7] (setting [17]) it was 0.5 µg/mL. For the same compound, the MIC in data set [14] turned out to be 0.5 µg/mL (≈ 1.07 µM); in data set [16] (setting [24]), 8 µg/mL (≈ 17.1 µM).

On to `CN[C@H](CC(C)C)C(=O)N[C@H]1C(=O)N[C@@H](CC(N)=O)C(=O)N[C@H]2C(=O)N[C@H]3C(=O)N[C@H](C(=O)N[C@H](C(=O)O)c4cc(O)cc(O)c4-c4cc3ccc4O)[C@H](O)c3ccc(c(Cl)c3)Oc3cc2cc(c3O[C@@H]2O[C@H](CO)[C@@H](O)[C@H](O)[C@H]2O[C@H]2C[C@](C)(N)[C@H](O)[C@H](C)O2)Oc2ccc(cc2Cl)[C@H]1O` [vancomycin], for which the MIC was determined as 512 µg/mL in data set [6]; 512 µg/mL (≈ 353 µM) in data set [15] (ATCCBAA1705, 24 h, read-out: MIC K. pneumoniae (ATCC BAA-1705)); 512 µg/mL (≈ 353 µM) in data set [15] (setting [22]); 1 µg/mL (≈ 0.69 µM) in data set [12] (read-out: MIC MRSA (ATCC BAA-1556)); 1 µg/mL (≈ 0.69 µM) in data set [12] (setting [20]); 1 µg/mL in data set [13] (ATCCBAA1556, read-out: MIC antibiotic alone). For the same compound, the MIC was determined as 256 µg/mL in [11] (setting [18]); 256 µg/mL in data set [7] (setting [19]); 256 µg/mL (≈ 177 µM) in data set [14]; 256 µg/mL (≈ 177 µM) in [16] (ATCC25922, 24 h, read-out: MIC E. coli (ATCC 25922)); 256 µg/mL (≈ 177 µM) in data set [16] (setting [24]).
